In PubChem BioAssay (NCI):
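96-well plates; 48 h exposure; 5 concentrations. Endpoints by linear interpolation between flanking doses. Not reached: highest tested concentration assigned. The concentration for full growth arrest is given as TGI.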

Experiments:
Assay in all cases: NCI tumour cell line growth inhibition, 48 h
786-0 renal = test system: 786-0 renal
A498 renal = test system: A498 renal
ACHN renal = test system: ACHN renal
BT-549 breast = test system: BT-549 breast
CAKI-1 renal = test system: CAKI-1 renal
CCRF-CEM leukemia = test system: CCRF-CEM leukemia
COLO 205 colon = test system: COLO 205 colon
DU-145 prostate = test system: DU-145 prostate
EKVX NSCLC = test system: EKVX NSCLC
HCC-2998 colon = test system: HCC-2998 colon
HCT-116 colon = test system: HCT-116 colon
HCT-15 colon = test system: HCT-15 colon
HOP-62 NSCLC = test system: HOP-62 NSCLC
HOP-92 NSCLC = test system: HOP-92 NSCLC
HS 578T breast = test system: HS 578T breast
IGROV1 ovarian = test system: IGROV1 ovarian
K-562 leukemia = test system: K-562 leukemia
KM12 colon = test system: KM12 colon
LOX IMVI melanoma = test system: LOX IMVI melanoma
M14 melanoma = test system: M14 melanoma
MCF7 breast = test system: MCF7 breast
MDA-MB-231 breast = test system: MDA-MB-231 breast
MDA-MB-435 = test system: MDA-MB-435
MDA-N = test system: MDA-N
MOLT-4 leukemia = test system: MOLT-4 leukemia
NCI-H226 lung = test system: NCI-H226 lung
NCI-H23 lung = test system: NCI-H23 lung
NCI-H460 lung = test system: NCI-H460 lung
NCI-H522 lung = test system: NCI-H522 lung
NCI/ADR-RES ovarian = test system: NCI/ADR-RES ovarian
OVCAR-3 ovarian = test system: OVCAR-3 ovarian
OVCAR-4 ovarian = test system: OVCAR-4 ovarian
OVCAR-5 ovarian = test system: OVCAR-5 ovarian
OVCAR-8 ovarian = test system: OVCAR-8 ovarian
PC-3 prostate = test system: PC-3 prostate
RPMI-8226 leukemia = test system: RPMI-8226 leukemia
RXF 393 renal = test system: RXF 393 renal
SF-268 CNS = test system: SF-268 CNS
SF-295 CNS = test system: SF-295 CNS
SF-539 CNS = test system: SF-539 CNS
SK-MEL-2 melanoma = test system: SK-MEL-2 melanoma
SK-MEL-5 melanoma = test system: SK-MEL-5 melanoma
SK-OV-3 ovarian = test system: SK-OV-3 ovarian
SN12C renal = test system: SN12C renal
SNB-19 CNS = test system: SNB-19 CNS
SNB-75 CNS = test system: SNB-75 CNS
SR leukemia = test system: SR leukemia
SW-620 colon = test system: SW-620 colon
T-47D breast = test system: T-47D breast
TK-10 renal = test system: TK-10 renal
U251 CNS = test system: U251 CNS
UACC-257 melanoma = test system: UACC-257 melanoma
UACC-62 melanoma = test system: UACC-62 melanoma
UO-31 renal = test system: UO-31 renal

Measured: TGI

O=c1nc2c(c(-c3ccc(F)cc3)[nH]1)COC/C2=C\c1ccc(F)cc1
> 100 µM: all assays above
